What was measured:
Phosphodiesterase 3 = Phosphodiesterase 3 (Homo sapiens, UniProt Q14432+Q13370); test: Inhibition of Phosphodiesterase 3; type: protein assay
Phosphodiesterase 1 = Phosphodiesterase 1 (Bos taurus, UniProt Q01061+P14100); test: Inhibition of Phosphodiesterase 1; type: protein assay
Phosphodiesterase 4 = Phosphodiesterase 4 (Homo sapiens, UniProt P27815+Q08499+Q07343+Q08493); test: Inhibition of Phosphodiesterase 4; type: protein assay
[1] = biological target: cGMP-specific 3',5'-cyclic phosphodiesterase (Homo sapiens, UniProt O76074)
Oryctolagus cuniculus = test: In vivo minimal effective dose for inhibition of phosphodiesterase in conscious rabbit model by peroral administration; type: functional; settings: po, read-out: MED

Q: `CCCc1nc(C)c2c(=O)[nH]c(-c3cc(S(=O)(=O)N4CCN(C)CC4)ccc3OCC)nn12` was tested. Which IC50 (Phosphodiesterase 3) did it give?
A: > 500 nM

Q: What about the IC50 (Phosphodiesterase 1) of the same molecule?
A: 300 nM

Q: With `CCCOc1ccc(S(=O)(=O)N2CCN(C)CC2)cc1-c1nc2c(ncn2CCC)c(=O)[nH]1` as the molecule, how does the IC50 (Phosphodiesterase 3) read?
A: > 500 nM

Q: And the IC50 (Phosphodiesterase 4)?
A: > 500 nM

Q: Which results are given for `CCCc1nc(C)c2c(=O)[nH]c(-c3ccccc3OCC)nn12`?
A: IC50 (Phosphodiesterase 3): > 500 nM; IC50 (Phosphodiesterase 4): > 500 nM; IC50 (Phosphodiesterase 1): 300 nM; IC50 [1]: 5 nM

Q: For `CCCOc1ccccc1-c1nc2c(ncn2CCC)c(=O)[nH]1`, which IC50 (Phosphodiesterase 3) is on record?
A: > 500 nM

Q: And the IC50 (Phosphodiesterase 4)?
A: > 500 nM

Q: What about the IC50 [1] of the same molecule?
A: 10 nM

Q: Which results are given for `CCCc1nn(C)c2c(=O)[nH]c(-c3ccccc3OCC)nc12`?
A: IC50 (Phosphodiesterase 3): > 500 nM; IC50 (Phosphodiesterase 4): > 500 nM; IC50 [1]: 40 nM

Q: What does the source list for `CCCc1nc(C)c2c(O)nc(-c3cc(S(=O)(=O)N4CCN(CC)CC4)ccc3OCC)nn12.Cl` [VARDENAFIL HYDROCHLORIDE]?
A: IC50 (Phosphodiesterase 1): 180 nM; minimal effective dose (Oryctolagus cuniculus): 3 mg/kg
